Laboratory results from patent US5932742A, “Arylsulfonylimidazolone derivatives as an antitumor agent” (priority 1996, dated 1999).
≈ marks a conversion by molar mass, not a printed value. Like-named read-outs stand apart in the source and are kept apart here.

Legend:
Type in all cases: cell-based
[1] = system: SK-OV-3 (ATCC HTB 77): human ovarian adenocarcinoma; test: In vitro antitumor activity, MTT assay, SK-OV-3; conditions: Homo sapiens
Method: (§1) In vitro antitumor activity against human tumor cell lines
(§2) In vitro antitumor activity of the compounds according to the present invention was determined by MTT assay method against the following human tumor cell lines:
SK-OV-3 (ATCC HTB 77): human ovarian adenocarcinoma
(§3) In this test, the known antineoplastic compounds, Doxorubicin and Sulofenur, were used as the comparative agents.
(§4) Each of the tumor cells was cultured in RPMI 1640 media containing 10% fetal bovine serum, 100 IU/ml penicillin and 100 μg/ml streptomycin, and then periodically subcultured once or twice per week in trypsin-EDTA solution containing 0.05% trypsin and 0.53mM EDTA.4Na. The human tumor cell line thus obtained (10,000cells/100 μl) was plated on 96-well microplate and then cultured for 24 hrs at 37° C. in a 5% CO2 incubator. Test compound was dissolved in DMSO, sterilized with 0.22 μm PVDF filter, and then serially 5-fold diluted from 40 μg/ml to 0.00256μg/ml. 100 μl of the sample solution thus prepared and RPMI 1640 medium only (control group) were added to 96-well microplate containing the human tumor cell, respectively. The final concentration of the test compound was in the range from 20 μg/ml to 0.00128 μg/ml and the concentration of DMSO was below 0.5%. The cells were cultured for 48 hrs at 37° C. in a 5% CO2 incubator. MTT(3-(4,5-Dimethylthiazole-2-yl)-e,5-diphenyltetrazoliumbromide) was dissolved in physiological saline in a concentration of 2 mg/ml and the resulting solution was filtered through 0.22 μm PTFE filter. 25 μl of MTT solution thus prepared was added to each well of 96-well microplate and incubated for additional 4 hrs at 37° C. in a 5% CO2 incubator. Then, the content of microplate was centrifuged at 1000 rpm for 10 min, and supernatant was removed by flicking. The formazan formed from MTT by mitochondrial succinate dehydrogenase was dissolved in 100 μl of DMSO. The absorbance of each well was measured at 540nm by micro ELISA reader and the cytotoxicity was calculated by dividing the absorbance of test group by the absorbance of control group. After the calculated cytotoxicity (%) was plotted, the concentration of 50% tumor growth inhibition concentration (IC50) was estimated by Linear-Regression method.

[2] = system: Colo205 (ATCC CCL 222): human colon adenocarcinoma; test: In vitro antitumor activity, MTT assay, Colo205; conditions: Homo sapiens
Method: as §1, §2
Colo205 (ATCC CCL 222): human colon adenocarcinoma
as §3, §4

[3] = system: A549 (ATCC CCL 185): human lung carcinoma; test: In vitro antitumor activity, MTT assay, A549; conditions: Homo sapiens, A549, 48 h
Method: as §1, §2
A549 (ATCC CCL 185): human lung carcinoma
as §3, §4

[4] = system: K562 (ATCC CCL 243): human chronic myelogenous leukemia; test: In vitro antitumor activity, MTT assay, K562; conditions: Homo sapiens, K562, 48 h
Method: as §1, §2
K562 (ATCC CCL 243): human chronic myelogenous leukemia
as §3, §4

[5] = COLO 205, Table 1, 48 hrs, read-out: IC50 (Colo205)
[6] = COLO 205, Table 3, 48 hrs, read-out: IC50 (Col205)

IC50 ([1]; SK-OV-3, Table 4, 48 hrs) | IC50 ([4]; Table 4, read-out: IC50 (K562)) | IC50 ([3]; Table 4) | Compound | also measured
– | – | – | CCCNC(=O)N1CCc2cc(S(=O)(=O)n3cc(-c4ccccc4)[nH]c3=O)ccc21 [Example 4, 4-phenyl-1-(N-propylcarbamoylindoline-5-sulfonyl)-2-imidazolone] | IC50 ([1]; SK-OV-3, Table 1, 48 hrs): < 0.00128 µg/mL; IC50 [2, 5]: < 0.00128 µg/mL; IC50 ([3]; Table 1): 0.052 µg/mL (≈ 0.122 µM)
– | – | – | CC(C)NC(=O)N1CCc2cc(S(=O)(=O)n3cc(-c4ccccc4)[nH]c3=O)ccc21 [Example 6, 4-phenyl-1-(N-isopropylcarbamoylindoline-5-sulfonyl)-2-imidazolone] | IC50 ([1]; SK-OV-3, Table 1, 48 hrs): < 0.00128 µg/mL; IC50 [2, 5]: < 0.00128 µg/mL; IC50 ([3]; Table 1): < 0.00128 µg/mL
– | – | – | CCCNC(=O)N1CCc2cc(S(=O)(=O)N3CC(c4ccccc4)NC3=O)ccc21 (centres unmarked) [Example 30, 4-phenyl-1-(N-propylcarbamoylindoline-5-sulfonyl)-4,5-dihydro-2-imidazolone] | IC50 ([1]; SK-OV-3, Table 3, 48 hrs): 0.261 µg/mL (≈ 0.609 µM); IC50 [2, 6]: 0.254 µg/mL (≈ 0.593 µM); IC50 ([4]; Table 3, read-out: IC50 (K562)): 0.488 µg/mL (≈ 1.14 µM); IC50 ([3]; Table 3): 0.103 µg/mL (≈ 0.24 µM)
– | – | – | CC(C)NC(=O)N1CCc2cc(S(=O)(=O)N3CC(c4ccccc4)NC3=O)ccc21 (centres unmarked) [Example 31, 4-phenyl-1-(N-isopropylcarbamoylindoline-5-sulfonyl)-4,5-dihydro-2-imidazolone] | IC50 ([1]; SK-OV-3, Table 3, 48 hrs): 0.28 µg/mL (≈ 0.653 µM); IC50 [2, 6]: 0.258 µg/mL (≈ 0.602 µM); IC50 ([4]; Table 3, read-out: IC50 (K562)): 0.439 µg/mL (≈ 1.02 µM); IC50 ([3]; Table 3): 0.073 µg/mL (≈ 0.17 µM)
– | – | – | C=CCNC(=O)N1CCc2cc(S(=O)(=O)N3CC(c4ccccc4)NC3=O)ccc21 (centres unmarked) [Example 32, 4-phenyl-1-(N-allylcarbamoylindoline-5-sulfonyl)-4,5-dihydro-2-imidazolone] | IC50 ([1]; SK-OV-3, Table 3, 48 hrs): 0.685 µg/mL (≈ 1.61 µM); IC50 [2, 6]: 7.1 µg/mL (≈ 16.6 µM); IC50 ([3]; Table 3): 0.042 µg/mL (≈ 0.0985 µM)
– | – | – | CCCNC(=S)N1CCc2cc(S(=O)(=O)N3CC(c4ccccc4)NC3=O)ccc21 (centres unmarked) [Example 40, 4-phenyl-1-(N-propylthiocarbamoylindoline-5-sulfonyl)-4,5-dihydro-2-imidazolone] | IC50 ([1]; SK-OV-3, Table 3, 48 hrs): 3.66 µg/mL (≈ 8.24 µM); IC50 ([4]; Table 3, read-out: IC50 (K562)): 0.337 µg/mL (≈ 0.758 µM); IC50 ([3]; Table 3): 0.245 µg/mL (≈ 0.551 µM)
– | – | – | COc1ccc(NC(=S)N2CCc3cc(S(=O)(=O)N4CC(c5ccccc5)NC4=O)ccc32)cc1 (centres unmarked) [Example 43, 4-phenyl-1-[N-(4-methoxyphenyl)thiocarbamoylindoline-5-sulfonyl]-4,5-dihydro-2-imidazolone] | IC50 ([1]; SK-OV-3, Table 3, 48 hrs): 1.03 µg/mL (≈ 2.03 µM); IC50 ([4]; Table 3, read-out: IC50 (K562)): 1.28 µg/mL (≈ 2.52 µM); IC50 ([3]; Table 3): 1.27 µg/mL (≈ 2.49 µM)
0.26 µg/mL (≈ 0.581 µM) | 1.84 µg/mL (≈ 4.12 µM) | 0.196 µg/mL (≈ 0.438 µM) | O=C(c1ccccc1)N1CCc2cc(S(=O)(=O)N3CC(c4ccccc4)NC3=O)ccc21 (centres unmarked) [Example 47, 4-phenyl-1-(N-benzoylindoline-5-sulfonyl)-4,5-dihydro-2-imidazolone] | –
> 20 µg/mL | 2.4 µg/mL (≈ 5.2 µM) | 1.74 µg/mL (≈ 3.76 µM) | Cc1ccc(C(=O)N2CCc3cc(S(=O)(=O)N4CC(c5ccccc5)NC4=O)ccc32)cc1 (centres unmarked) [Example 48, 4-phenyl-1-[N-(4-methylbenzoyl)indoline-5-sulfonyl]-4,5-dihydro-2-imidazolone] | –
0.591 µg/mL (≈ 1.28 µM) | 5.71 µg/mL (≈ 12.3 µM) | 0.638 µg/mL (≈ 1.38 µM) | O=C(c1ccccc1O)N1CCc2cc(S(=O)(=O)N3CC(c4ccccc4)NC3=O)ccc21 (centres unmarked) [Example 49, 4-phenyl-1-[N-(2-hydroxybenzoyl)indoline-5-sulfonyl]-4,5-dihydro-2-imidazolone] | –
1.37 µg/mL (≈ 2.87 µM) | 2.19 µg/mL (≈ 4.58 µM) | 1.56 µg/mL (≈ 3.28 µM) | COc1ccc(C(=O)N2CCc3cc(S(=O)(=O)N4CC(c5ccccc5)NC4=O)ccc32)cc1 (centres unmarked) [Example 50, 4-phenyl-1-[N-(4-methoxybenzoyl)indoline-5-sulfonyl]-4,5-dihydro-2-imidazolone] | –
12.1 µg/mL (≈ 23.9 µM) | 0.218 µg/mL (≈ 0.429 µM) | 1.65 µg/mL (≈ 3.25 µM) | COc1ccc(C(=O)N2CCc3cc(S(=O)(=O)N4CC(c5ccccc5)NC4=O)ccc32)cc1OC (centres unmarked) [Example 51, 4-phenyl-1-[N-(3,4-dimethoxybenzoyl)indoline-5-sulfonyl]-4,5-dihydro-2-imidazolone] | –
2.22 µg/mL (≈ 4.51 µM) | – | 0.101 µg/mL (≈ 0.205 µM) | CCOc1ccc(C(=O)N2CCc3cc(S(=O)(=O)N4CC(c5ccccc5)NC4=O)ccc32)cc1 (centres unmarked) [Example 52, 4-phenyl-1-[N-(4-ethoxybenzoyl)indoline-5-sulfonyl]-4,5-dihydro-2-imidazolone] | –
5.97 µg/mL (≈ 12.4 µM) | 0.594 µg/mL (≈ 1.23 µM) | 0.774 µg/mL (≈ 1.61 µM) | O=C(c1ccc(Cl)cc1)N1CCc2cc(S(=O)(=O)N3CC(c4ccccc4)NC3=O)ccc21 (centres unmarked) [Example 53, 4-phenyl-1-[N-(4-chlorobenzoyl)indoline-5-sulfonyl]-4,5-dihydro-2-imidazolone] | –
2.33 µg/mL (≈ 5 µM) | 3.64 µg/mL (≈ 7.83 µM) | 0.59 µg/mL (≈ 1.27 µM) | O=C(c1ccc(F)cc1)N1CCc2cc(S(=O)(=O)N3CC(c4ccccc4)NC3=O)ccc21 (centres unmarked) [Example 54, 4-phenyl-1-[N-(4-fluorobenzoyl)indoline-5-sulfonyl]-4,5-dihydro-2-imidazolone] | –
2.09 µg/mL (≈ 4.24 µM) | 8.88 µg/mL (≈ 18 µM) | 1.7 µg/mL (≈ 3.45 µM) | O=C(c1ccc([N+](=O)[O-])cc1)N1CCc2cc(S(=O)(=O)N3CC(c4ccccc4)NC3=O)ccc21 (centres unmarked) [Example 55, 4-phenyl-1-[N-(4-nitrobenzoyl)indoline-5-sulfonyl]-4,5-dihydro-2-imidazolone] | –
0.968 µg/mL (≈ 2.05 µM) | 4.96 µg/mL (≈ 10.5 µM) | 1.59 µg/mL (≈ 3.36 µM) | N#Cc1ccc(C(=O)N2CCc3cc(S(=O)(=O)N4CC(c5ccccc5)NC4=O)ccc32)cc1 (centres unmarked) [Example 56, 4-phenyl-1-[N-(4-cyanobenzoyl)indoline-5-sulfonyl]-4,5-dihydro-2-imidazolone] | –
2.6 µg/mL (≈ 5.39 µM) | 7.04 µg/mL (≈ 14.6 µM) | 1.62 µg/mL (≈ 3.36 µM) | O=C(c1cccc(Cl)c1)N1CCc2cc(S(=O)(=O)N3CC(c4ccccc4)NC3=O)ccc21 (centres unmarked) [Example 58, 4-phenyl-1-[N-(3-chlorobenzoyl)indoline-5-sulfonyl]-4,5-dihydro-2-imidazolone] | –
16.5 µg/mL (≈ 32 µM) | 1.88 µg/mL (≈ 3.64 µM) | 2.02 µg/mL (≈ 3.92 µM) | O=C(c1cc(Cl)cc(Cl)c1)N1CCc2cc(S(=O)(=O)N3CC(c4ccccc4)NC3=O)ccc21 (centres unmarked) [Example 59, 4-phenyl-1-[N-(3,5-dichlorobenzoyl)indoline-5-sulfonyl]-4,5-dihydro-2-imidazolone] | –
8.51 µg/mL (≈ 18.3 µM) | 0.619 µg/mL (≈ 1.33 µM) | 0.328 µg/mL (≈ 0.705 µM) | O=C(c1cccc(F)c1)N1CCc2cc(S(=O)(=O)N3CC(c4ccccc4)NC3=O)ccc21 (centres unmarked) [Example 60, 4-phenyl-1-[N-(3-fluorobenzoyl)indoline-5-sulfonyl]-4,5-dihydro-2-imidazolone] | –
1.52 µg/mL (≈ 3.14 µM) | 5.66 µg/mL (≈ 11.7 µM) | 1.94 µg/mL (≈ 4.01 µM) | O=C(c1ccc(F)cc1F)N1CCc2cc(S(=O)(=O)N3CC(c4ccccc4)NC3=O)ccc21 (centres unmarked) [Example 61, 4-phenyl-1-[N-(2,4-difluorobenzoyl)indoline-5-sulfonyl]-4,5-dihydro-2-imidazolone] | –
11.8 µg/mL (≈ 22.8 µM) | 1.37 µg/mL (≈ 2.65 µM) | 2.18 µg/mL (≈ 4.24 µM) | O=C(c1cccc(C(F)(F)F)c1)N1CCc2cc(S(=O)(=O)N3CC(c4ccccc4)NC3=O)ccc21 (centres unmarked) [Example 62, 4-phenyl-1-[N-(3-trifluoromethylbenzoyl)indoline-5-sulfonyl]-4,5-dihydro-2-imidazolone] | –
11.3 µg/mL (≈ 21.4 µM) | – | 2.74 µg/mL (≈ 5.15 µM) | O=C(c1cccc(OC(F)(F)F)c1)N1CCc2cc(S(=O)(=O)N3CC(c4ccccc4)NC3=O)ccc21 (centres unmarked) [Example 63, 4-phenyl-1-[N-(3-trifluoromethoxybenzoyl)indoline-5-sulfonyl]-4,5-dihydro-2-imidazolone] | –
2.96 µg/mL (≈ 5.56 µM) | – | 0.695 µg/mL (≈ 1.31 µM) | O=C(c1ccc(OC(F)(F)F)cc1)N1CCc2cc(S(=O)(=O)N3CC(c4ccccc4)NC3=O)ccc21 (centres unmarked) [Example 64, 4-phenyl-1-[N-(4-trifluoromethoxybenzoyl)indoline-5-sulfonyl]-4,5-dihydro-2-imidazolone] | –
